Entries after “also recorded” stand apart in the source; their conditions may differ.
Assays:
[1] = tested on: NF-κB signaling (p-IκBα, Bcl-XL) in CLL cells; assay: Western blot of p-IκBα and Bcl-XL in stimulated CLL cells; assay type: cell-based, human; conditions: 10 μM MALTi, 24 hours
Procedure: (§1) FIG. 1A is a bar graph showing the results of an experiment in which CLL cells were treated with the indicated drugs and concentrations and incubated for 24 hours. For the BCR stimulation, cells were supplemented with IL-4 and αIgM. […] Bars represent the mean±SEM. FIG. 1B is a bar graph showing the results of an experiment in which CLL cells were labeled with CellTrace Violet and cultured for 5 days on 3T40 supplemented with IL-21 or on 3T3 in combination with CpG, IL-2, IL-15, and IL-21 in combination with 10 μM MALTi. Proliferation was measured using flow cytometry based on CellTrace Violet signal (n=8). […] Afterwards, culture supernatant was collected and IL-6 (n=14) (FIG. 1C), IL-10 (n=13) (FIG. 1D), and TNFα (n=14) (FIG. 1E) levels were measured using commercial ELISA kits. […] Protein lysates were probed for p-IκBα, Bcl-XL, and actin as loading control.
Western blot analysis was performed using standard techniques. […]
(§2) CLL PBMCs were either co-cultured with 3T40 fibroblasts, stimulated with soluble or immobilized anti-IgM (SouthernBiotech, Birmingham, AL, USA) or stimulated with CpG ODN2006 (1 μg/mL) and incubated for 24 hours. Culture supernatant was collected and IL-6, IL-10, and TNFα levels were measured by commercial ELISA kits (Diaclone, Besancon, France). […] Samples were measured on a FACS Canto II cytometer (BD Biosciences, San Jose, CA, USA) and analyzed using FlowJo software.

[2] = tested on: Bcl-2 family members Bcl-XL, Mcl-1 and Bcl-2 in CLL cells; assay: Expression of Bcl-XL, Mcl-1 and Bcl-2 in stimulated CLL cells, intracellular flow cytometry; assay type: cell-based, human; conditions: CD40, BCR or TLR9 stimulation, 10 μM MALTi, 24 hours
Procedure: Afterwards, expression of Bcl-XL (n=13) (FIG. 2A).
CLL PBMCs were either co-cultured with 3T40 fibroblasts, stimulated with soluble or immobilized anti-IgM (SouthernBiotech, Birmingham, AL, USA) or stimulated with CpG ODN2006 (1 μg/mL) and incubated for 24 hours. Culture supernatant was collected and IL-6, IL-10, and TNFα levels were measured by commercial ELISA kits (Diaclone, Besancon, France). Intracellular flow cytometry staining was performed using Cytofix/Cytoperm according to manufacturer's protocol (BD Biosciences). Cells were stained with the following antibodies: anti-Bcl-XL-FITC, Mcl-1-PE, and Bcl-2-BV421 (BD Biosciences). Samples were measured on a FACS Canto II cytometer (BD Biosciences, San Jose, CA, USA) and analyzed using FlowJo software.

[3] = tested on: NF-κB-mediated cytokine secretion in CLL cells; assay: Cytokine secretion (IL-6, IL-10, TNFα) of stimulated CLL cells, ELISA; assay type: cell-based, human; conditions: CD40, BCR and TLR9 stimulation, 24 hours
Procedure: as §1, §2

[4] = tested on: T cell subsets in CLL and healthy donor PBMCs; assay: T cell differentiation and subset distribution, flow cytometry; assay type: cell-based, human
Procedure: (§3) Afterwards, T cell subsets were measured using flow cytometry as described. […] Afterwards, T cell subsets were measured using flow cytometry based on CD27 and CD45RA. Naïve T cells were gated as CD27^+/CD45RA^+, central memory T cells were gated as CD27^+/CD45RA^−, memory T cells were gated as CD27^−/CD45RA^−, and terminally differentiated effector memory cells re-expressing CD45RA T cells were gated as CD27^−/CD45RA^+. […] Afterwards, regulatory T cells were measured using flow cytometry and gated as CD4^+/CD25^+/FoxP3^+. Bars represent the mean±SEM, *p<0.05, ***p<0.001 (paired sample t-test).
(§4) CLL or healthy donor PBMCs were labeled with CFSE or CTV and stimulated with anti-CD3 (clone 1XE) and anti-CD28 (clone 15E8) antibodies for 4 days. Culture supernatant was collected and IFNγ (ThermoFisher) and TNFα (Diaclone) levels were measured by commercial ELISA kits. The activation/proliferation panel consisted of the following antibodies: CD3-μF700 (eBioscience), CD4-PE-Cy7, CD8-PerCpCy5.5, CD25-APC (BD Bioscience). The differentiation panel consisted of the following antibodies: CD27/CCR7-PerCP-eFluor710 or (eBioscience), CD4-PE-Cy7, CD8-BV786, CD25-PE, CD45RA-BV650, and FoxP3-APC (BD Biosciences). […] Samples were measured on a FACS Canto II cytometer (BD Biosciences, San Jose, CA, USA) and analyzed using FlowJo software.

CLL cells [5] = assay: CLL cell viability, flow cytometry with DiOC6 and TO-PRO3; assay type: cell-based, human; conditions: 24 hours, DiOC6 and TO-PRO3 staining
Procedure: as §1

OCI-LY3 DLBCL CDX model = assay: In vivo efficacy in OCI-LY3 model, tumor growth inhibition; set-up: species or system NOD/SCID mice; conditions: for tumor growth inhibition (TGI): oral, 12 days post treatment; for in vivo growth of OCI-LY3 DLBCL CDX model (efficacy in words): OCI-LY3 model (CARD11 mut)
CLL cells [6] = conditions: CD40-, BCR- or TLR9-stimulated, 10 μM MALTi, BH3 mimetic for additional 24 hours
Procedure: FIGS. 2A-2C are bar graphs showing the results of experiments in which CLL cells were cultured for 24 hours on 3T40, stimulated with IL-4 and αIgM (soluble or immobilized to beads) or stimulated with CpG, and incubated for 24 hours in combination with 10 μM MALTi. […] FIGS. 2D-2I) are graphs showing the results of experiments in which, in parallel, CD40-stimulated (n=9) (FIGS. 2D-2E), BCR-stimulated (n=8) (FIGS. 2F-2G), and TLR9-stimulated (n=6) (FIGS. 2H-2I) cells were with venetoclax or S63 for an additional 24 hours. Viability was measured using flow cytometry using DiOC6 and TO-PRO3 viability staining. […]
Lymphocytes of CLL patients were co-cultured with NIH3T3 fibroblasts stably transfected with human CD40L (3T40) or negative control (3T3) as described before (Urashima et al., “CD40 Ligand Triggered Interleukin-6 Secretion in Multiple Myeloma,” Blood 85(7):1903-1912 (1995) and Schultze et al., “CD40-Activated Human B Cells: An Alternative Source of Highly Efficient Antigen Presenting Cells to Generate Autologous Antigen-Specific T Cells for Adoptive Immunotherapy,” J. Clin. Invest. 100(11):2757-2765 (1997). After 24 hours, cells were detached and incubated with or without drugs for an additional 24 hours. CLL cell viability was measured by flow cytometry using DioC6 and TO-PRO-3 viability dyes. […]

CLL cells [7] = assay: Proliferation of CLL cells, CellTrace Violet; assay type: cell-based, human; conditions: 10 μM MALTi, 5 days; CD40 stimulation + IL-21 or CpG + IL-2, IL-15, IL-21
Procedure: as §1
CLL PBMCs were labeled with CellTrace Violet and either co-cultured with 3T40 fibroblasts and supplemented with IL-21 (25 ng/mL) or stimulated with CpG ODN2006 (1 μg/mL) and supplemented with IL-2, IL-15, and IL-21 (25 ng/mL). CLL cells were cultured for 5 days. […] Samples were measured on a FACS Canto II cytometer (BD Biosciences, San Jose, CA, USA) and proliferation was analyzed using FlowJo software.

[8] = tested on: CLL-derived and healthy T cells; assay: T cell stimulation with anti-CD3/CD28: activation, proliferation, degranulation, cytokine secretion; assay type: cell-based, human
Procedure: Afterwards, cells were measured using flow cytometry. FIG. 3A are bar graphs showing T cell activation measured based on CD25. […] FIG. 3C are bar graphs showing T cell proliferation measured based on CellTrace Violet signal. FIG. 3D are bar graphs showing T cell degranulation measured in CLL (n=13) and healthy (n=3) T cells based on CD107a. After incubation, culture supernatant was collected and IFNγ (n=12) and TNFα (n=9) levels were measured using commercial ELISA kits (FIG. 3E).
CLL or healthy donor PBMCs were labeled with CFSE or CTV and stimulated with anti-CD3 (clone 1XE) and anti-CD28 (clone 15E8) antibodies for 4 days. Culture supernatant was collected and IFNγ (ThermoFisher) and TNFα (Diaclone) levels were measured by commercial ELISA kits. The activation/proliferation panel consisted of the following antibodies: CD3-μF700 (eBioscience), CD4-PE-Cy7, CD8-PerCpCy5.5, CD25-APC (BD Bioscience). The differentiation panel consisted of the following antibodies: CD27/CCR7-PerCP-eFluor710 or (eBioscience), CD4-PE-Cy7, CD8-BV786, CD25-PE, CD45RA-BV650, and FoxP3-APC (BD Biosciences). The cytotoxicity panel consisted of the following antibodies: CD107a-FITC (eBioscience), CD4-PerCPeF710, CD8-BV786, CD25-PE, and PD1-PE-Cy7 (BD Biosciences). Samples were measured on a FACS Canto II cytometer (BD Biosciences, San Jose, CA, USA) and analyzed using FlowJo software.

[9] = tested on: CD4+/CD25+/FoxP3+ regulatory T cells; assay: Regulatory T cell population in unstimulated PBMCs, flow cytometry; assay type: cell-based, human; conditions: unstimulated CLL and healthy donor PBMCs, 4 days
Procedure: as §3, §4

[10] = tested on: IL-10, TNF-α, IL12p70, IL-6 in serum; assay: Serum cytokine secretion in OCI-LY3 tumor bearing mice, Mesoscale assay; assay type: in vivo, NOD/SCID mice
Procedure: Tumor and Serum Samples Collection on Study Termination. Whole blood samples were collected from all groups at 6 hours post the final dose. Serum samples were isolated from all groups were collected and stored at −80° C. Tumor tissues were collected from all of groups when study was terminated, and split into 2 pieces, take weights, processed to snap frozen and stored in 2 separated tubes.
Tumor and Serum Samples Collection on Study Termination. NF-κB signaling regulates the secretion of multiple cytokines, including interleukin (IL)-6 and IL-10. Secretion of the cytokines (IL-10, TNF-α, IL12p70, and IL-6) in serum samples of OCI-LY3 animals was measured by using a Mesoscale assay (MSD). For in vivo efficacy study, serum samples were isolated from all tumor bearing mice at 6 hours post the final dose of the MALT1 inhibitor of Formula I. For in vivo Pharmacodynamic (PD) experiment, serum samples were isolated from all tumor bearing mice (tumor volume around 700 mm3) at 8 hours post treatment with the MALT1 inhibitor of Formula I (BID dosing). Serum samples were transferred to an MSD plate (V-Plex Proinflammation Panel 1 [human] kit) and incubated for 2 hours at RT followed by a 2-hour incubation with cytokine antibody solution. Plates were read on a SECTOR imager.

[11] = tested on: RelB and Bcl10 cleavage in OCI-Ly3 cell line; assay: Activity of MALT1 inhibitor in OCI-Ly3 cell line, inhibition of RelB and Bcl10 cleavage by Western blotting; assay type: cell-based; conditions: 24 hours, with proteasome inhibitor MG132, Western blot
Procedure: OCI-Ly3 cell lines were cultured for 24 hours in combination with proteasome inhibitor MG132 and indicated concentrations of MALTi. Protein lysates were probed for RelB, Bcl10 and actin or vinculin as loading controls.
Western blot analysis was performed using standard techniques. Membranes were probed with the following antibodies: anti-RelB, p-IκBα, Bcl-XL (Cell Signaling), Bcl10 (Abcam), and actin (Santa Cruz Biotechnology). Odyssey Imager (Li-Cor Biosciences) was used as a detection method according to the manufacturer's protocol.
To test MALT1 inhibition in the context of CLL, we investigated CLL functionality under divergent microenvironmental stimulations. […] Proliferation of CLL cells was induced either via CD40 stimulation in combination with IL-21, or by stimulation with CpG in combination with IL-2, IL-15 and IL-21 ([…]). […] Because of the central role of MALT1 in NF-κB signaling, we investigated known targets of NF-κB such as IL-6, IL-10 and TNFα. Both CD40, BCR and TLR9 stimulation induced cytokine secretion of IL-6, IL-10 and TNFα (FIG. 1C-E). […] The role of MALT1 in the BCR and TLR9 pathway has previously been described, but its role in the CD40 pathway is a new observation.

## O=C(Nc1ccnc(C(F)(F)F)c1)c1cnn(-c2cccc3c(=O)[nH]ccc23)c1C(F)(F)F [MALT1 inhibitor of Formula I, 1-(1-oxo-1,2-dihydroisoquinolin-5-yl)-5-(trifluoromethyl)-N-[2-(trifluoromethyl)pyridin-4-yl]-1H-pyrazole-4-carboxamide]
[1]; BCR stimulation with soluble or immobilized anti-IgM or TLR9 stimulation via CpG
  Bcl-XL expression, Western blot: inhibition of Bcl-XL expression was also observed
[1]; CD40-stimulated (3T40) CLL cells
  p-IκBα and Bcl-XL, Western blot: a decrease in p-IκBα and the NF-κB target Bcl-XL
[2]
  expression of Bcl-XL, flow cytometry: inhibited
  expression of Mcl-1 and Bcl-2, flow cytometry: not significantly affected
[3]
  NF-κB-mediated cytokine secretion (IL-6, IL-10, TNFα): decreased NF-κB-mediated cytokine secretion in all conditions and was most effective in CD40-stimulated cells
[4]; stimulated with anti-CD3/CD28, 4 days, increasing concentrations
  T cell subset distribution (differentiation): reverted the T cell subset distribution back to the phenotype seen in unstimulated cells
[4]; unstimulated cells, 4 days
  T cell subset distribution: did not affect T cell subset distribution
CLL cells [5]
  direct cell death in CLL cells (viability): did not induce direct cell death
OCI-LY3 DLBCL CDX model; 30 mg/kg BID
  tumor growth inhibition (TGI): 41.31%
OCI-LY3 DLBCL CDX model; 30 mg/kg, BID as printed, (second line of Table 4)
  TGI: 69.92%
OCI-LY3 DLBCL CDX model; 30 mg/kg, BID, (first line of Table 4)
  TGI: 41.31%
OCI-LY3 DLBCL CDX model; 100 mg/kg BID
  tumor growth inhibition (TGI): 69.92%
OCI-LY3 DLBCL CDX model
  in vivo growth of OCI-LY3 DLBCL CDX model (efficacy in words): moderately inhibits in vivo growth
CLL cells [6]
  sensitivity of stimulated CLL cells to venetoclax and S63 with concurrent MALT1 inhibition: a shift towards venetoclax and S63 sensitivity in all these conditions
CLL cells [7]
  proliferation of CLL cells: reduced both types of proliferation but did not fully block the proliferation
[8]; anti-CD3/CD28, 4 days
  CD107a (LAMP-1) expression, T cell degranulation: reduced
[8]; anti-CD3/CD28, 4 days, ELISA
  IFNγ and TNFα cytokine secretion: significantly inhibited
[8]; anti-CD3/CD28 stimulated T cells
  concentrations at which in vitro T cell activation is impaired: > 1 µM
[8]; soluble anti-CD3/CD28, 4 days, CD4 and CD8 T cells, CLL and healthy donors
  T cell activation and proliferation (CD25, PD-1, CellTrace Violet): significantly reduced
[9]
  CD4+/CD25+/FoxP3+ T cells: specific significant decrease
[10]; 6 hours post final dose
  IL-10, TNF-α, and IL12p70 secretion levels in serum: decrease IL-10, TNF-α, and IL12p70 secretion levels; also recorded: downregulate IL-10, TNF-α and IL12p70 secretion
[11]
  inhibition of RelB and Bcl10 cleavage: confirmed activity

## CC1(C)CCC(CN2CCN(c3ccc(C(=O)NS(=O)(=O)c4ccc(NCC5CCOCC5)c([N+](=O)[O-])c4)c(Oc4cnc5[nH]ccc5c4)c3)CC2)=C(c2ccc(Cl)cc2)C1 [Venetoclax, 4-[4-[[2-(4-chlorophenyl)-4,4-dimethylcyclohexen-1-yl]methyl]piperazin-1-yl]-N-[3-nitro-4-(oxan-4-ylmethylamino)phenyl]sulfonyl-2-(1H-pyrrolo[2,3-b]pyridin-5-yloxy)benzamide, reference compound]
OCI-LY3 DLBCL CDX model; 40 mg/kg QD
  tumor growth inhibition (TGI): 0.98%
OCI-LY3 DLBCL CDX model; 40 mg/kg, QD
  TGI: 0.98%
OCI-LY3 DLBCL CDX model
  in vivo growth of OCI-LY3 DLBCL CDX model (efficacy in words): did not show any efficacy
[10]; monotherapy
  cytokine secretion levels in serum (IL-10, TNFα, IL12p70, IL6): didn't show effect

— US11872220B2, “Methods and compositions for treating B-cell malignancies” (Janssen Pharmaceutica NV, priority 2021, dated 2024)
